What all share (format): biochemical
For assay [1], the target named is MAPKAPK2 (Homo sapiens, UniProt P49137). Description: Kinase assay, wild type kinases. As to conditions: compound 10 μM, 10 μM ATP, duplicate (Data 1, Data 2), >100 activation, <100 inhibition; for remaining activity at 10 µM: read-out: % Enzyme Activity (relative to DMSO controls), MAPKAPK2.
For assay [2], the target named is T1, RIPK4 (Homo sapiens, UniProt P57078).
T1 sequence (P57078 1-832): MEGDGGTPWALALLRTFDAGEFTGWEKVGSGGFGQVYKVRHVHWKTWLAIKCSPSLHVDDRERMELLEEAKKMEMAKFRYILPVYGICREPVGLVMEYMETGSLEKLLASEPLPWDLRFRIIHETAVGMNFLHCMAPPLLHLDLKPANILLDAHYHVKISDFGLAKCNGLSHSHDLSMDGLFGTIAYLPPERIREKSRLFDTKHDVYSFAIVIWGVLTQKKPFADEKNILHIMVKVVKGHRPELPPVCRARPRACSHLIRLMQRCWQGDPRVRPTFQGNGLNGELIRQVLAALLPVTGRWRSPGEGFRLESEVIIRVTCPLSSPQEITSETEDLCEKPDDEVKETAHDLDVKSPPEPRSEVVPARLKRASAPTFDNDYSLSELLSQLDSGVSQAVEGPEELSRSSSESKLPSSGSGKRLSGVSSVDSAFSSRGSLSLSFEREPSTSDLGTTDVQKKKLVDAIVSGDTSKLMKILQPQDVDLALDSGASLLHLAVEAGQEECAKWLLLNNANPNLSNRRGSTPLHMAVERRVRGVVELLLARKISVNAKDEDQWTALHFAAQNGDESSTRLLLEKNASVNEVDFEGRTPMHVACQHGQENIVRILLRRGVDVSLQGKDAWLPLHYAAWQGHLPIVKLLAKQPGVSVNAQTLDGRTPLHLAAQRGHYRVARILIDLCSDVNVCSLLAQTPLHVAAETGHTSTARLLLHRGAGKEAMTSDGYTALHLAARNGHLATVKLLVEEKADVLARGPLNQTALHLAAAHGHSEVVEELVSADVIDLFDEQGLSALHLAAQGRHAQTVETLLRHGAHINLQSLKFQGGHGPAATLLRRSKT
Description: Kinase assay, wild type kinases. As to conditions: compound 10 μM, 10 μM ATP, duplicate (Data 1, Data 2), >100 activation, <100 inhibition; for remaining activity at 10 µM: read-out: % Enzyme Activity (relative to DMSO controls), RIPK4.

The target in assay [3] is T2, BMX/ETK (Homo sapiens, UniProt P51813).
T2 sequence (P51813 1-675): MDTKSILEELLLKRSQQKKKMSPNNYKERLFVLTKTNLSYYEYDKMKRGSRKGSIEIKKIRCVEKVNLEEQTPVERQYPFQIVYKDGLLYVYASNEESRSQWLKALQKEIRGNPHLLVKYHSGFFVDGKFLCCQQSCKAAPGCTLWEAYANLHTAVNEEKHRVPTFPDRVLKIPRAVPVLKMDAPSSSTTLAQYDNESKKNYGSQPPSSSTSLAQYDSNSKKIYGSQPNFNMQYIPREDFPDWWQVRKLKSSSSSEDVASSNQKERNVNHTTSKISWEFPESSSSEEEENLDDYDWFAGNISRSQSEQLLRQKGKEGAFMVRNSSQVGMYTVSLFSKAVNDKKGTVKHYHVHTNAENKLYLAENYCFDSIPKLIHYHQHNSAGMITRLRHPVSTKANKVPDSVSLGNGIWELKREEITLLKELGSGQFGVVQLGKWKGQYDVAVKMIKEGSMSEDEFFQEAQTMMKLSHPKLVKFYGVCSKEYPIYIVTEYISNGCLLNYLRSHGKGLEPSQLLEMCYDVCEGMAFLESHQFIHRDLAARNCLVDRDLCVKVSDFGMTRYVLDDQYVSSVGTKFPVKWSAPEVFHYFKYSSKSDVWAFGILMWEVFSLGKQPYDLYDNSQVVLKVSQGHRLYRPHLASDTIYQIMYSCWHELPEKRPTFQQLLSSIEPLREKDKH
Description: Kinase assay, wild type kinases. As to conditions: compound 10 μM, 10 μM ATP, duplicate (Data 1, Data 2), >100 activation, <100 inhibition; for remaining activity at 10 µM: read-out: % Enzyme Activity (relative to DMSO controls), BMX/ETK.

In assay [4] the target is T3, Human ACC1 (Homo sapiens, UniProt Q13085).
T3 construct: FLAG (C); His (C); purchased BPS Biosciences 50202; host or cells: Baculovirus infected Sf9 cells
Description: ACC1 enzymatic assay (ADP-Glo). As to conditions: recombinant human ACC1 5 nM, 10 μM ATP, 10 μM acetyl CoA; Run 1-3; read-out: Compound IC50 (M) ACC1. As to the method: Human ACC1 (Cat#50202 Lot #120830) and ACC2 (Cat #50201 Lot #160217) were obtained from BPS Biosciences, San Diego, Calif. 92121. Human ACC1 had C-terminal flag and His-tags with a MW of 270 KDa after purification from Baculovirus infected Sf9 cell expression system and came as a solution in 50 mM Tris-HCl, pH 8.0, 500 mM NaCl, 10% glycerol, 1 mM DTT, 100 μg/ml FLAG peptide with 70% purity. The stock concentration was 0.25 mg/ml corresponding to 0.926 μM. Human ACC2 was also purified from Baculovirus infected Sf9 expression system. […] The stock concentration was 0.1 mg/ml corresponding to 0.36 μM. The assay buffer for measuring the activity of ACC contained: 30 mM HEPES (pH 7.4), 2 mM MgCl2, 0.01% Brij35, 2 mM DTT, 1% DMSO (solvent for compound). For ACC1 and ACC2 assays, the following concentrations of substrate and cofactors were used: 12 mM NaHCO3, 10 μM acetyl CoA, 10 μM ATP, and 2 mM K-citrate. The recombinant human enzyme was used at 5 nM for ACC1 and 1 nM for ACC2. In brief, enzyme alone in the above buffer without substrate was used for background. All test materials were dissolved in 100% DMSO using acoustic technology (Echo550). The prepared solution was preincubated for 15 min followed by the addition of 5 μL/well of ADP standard. ATP was then added to start the reaction. The assay contents were spun and briefly shaken followed by incubation at room temperature for 1 h. At the end of completion of assay, 5 μL of ADP-Glo was added to each well to stop the reaction. The contents were mixed, spun and incubated at room temperature for 40 min followed by the addition of 10 μL/well of ADP detection reagent. The contents were spun, mixed and covered with plastic to measure luminescence. […] The light generated, measured in a luminometer, correlates to the amount of ADP generated in the ACC assay, which is indicative of ACC activity.
The enzyme concentrations for ACC1 and ACC2 were 5 nM and 1 nM, respectively.
Data represent nM or μM ADP produced, % Activity (relative to no inhibitor controls), and curve fits were performed by GraphPad Prism software. The IC50 concentration-response curves were generated for both the ACC1 and ACC2 assays using recombinant human ACC.
On the technique in general: ADP-Glo first removes unused ATP, then detects ADP through luciferase.

Where “and” joins values, the source holds several entries; their conditions need not be identical. Equal values may be shown once.

By IC50 is commonly meant the concentration that inhibits the measured activity by half.

MAPKAPK2, sequence (P49137 whole entry, species assumed): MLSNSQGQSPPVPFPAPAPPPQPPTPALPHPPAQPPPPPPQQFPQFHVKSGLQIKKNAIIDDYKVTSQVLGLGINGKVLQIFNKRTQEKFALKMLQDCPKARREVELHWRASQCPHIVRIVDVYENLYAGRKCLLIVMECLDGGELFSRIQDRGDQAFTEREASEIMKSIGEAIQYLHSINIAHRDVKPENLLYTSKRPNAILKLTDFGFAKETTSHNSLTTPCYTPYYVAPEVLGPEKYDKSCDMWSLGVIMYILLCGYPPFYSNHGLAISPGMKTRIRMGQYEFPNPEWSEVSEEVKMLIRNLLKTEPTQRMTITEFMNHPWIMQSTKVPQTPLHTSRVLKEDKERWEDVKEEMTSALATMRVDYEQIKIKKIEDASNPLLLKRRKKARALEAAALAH

As to `CC(C)(CCCCc1ccc(CCCCC(C)(C)C(=O)O)cc1)C(=O)O` [Compound I-1, 6-[4-(5-carboxy-5-methylhexyl)-phenyl]-2,2-dimethylhexanoic acid], the remaining activity at 10 µM in assay [1] is 93.1%; in assay [2], 45.1%; in assay [3] it was 55%.

With `CC(C)(CCCCc1cccc(CCCCC(C)(C)C(=O)SCCNC(=O)CCNC(=O)[C@H](O)C(C)(C)COP(=O)(O)OP(=O)(O)OC[C@H]2O[C@@H](n3cnc4c(N)ncnc43)[C@H](O)[C@@H]2OP(=O)(O)O)c1)C(=O)O` [Compound I-32-CoA, 6-[3-(5-Carboxy-5-methylhexyl)-phenyl]-2,2-dimethylhexanoic acid Coenzyme A Ester], the half-maximal inhibitory concentration (IC50) in assay [4] is 5.07e-06 M and 5e-06 M and 6.03e-06 M. Besides, in assay [1], the “% Enzyme Activity (relative to DMSO controls), MAPKAPK2” value was 17.17% and 15.90%. The “% Enzyme Activity (relative to DMSO controls), RIPK4” value in assay [2] was 33.02% and 32.84%. Further, the “% Enzyme Activity (relative to DMSO controls), BMX/ETK” value in assay [3] is 49.54% and 43.87%.

Turning to `CC(C)(CCCCc1ccc(CCCCC(C)(C)C(=O)SCCNC(=O)CCNC(=O)[C@H](O)C(C)(C)COP(=O)(O)OP(=O)(O)OC[C@H]2O[C@@H](n3cnc4c(N)ncnc43)[C@H](O)[C@@H]2OP(=O)(O)O)cc1)C(=O)O` [Compound I-1-CoA, 6-[4-(5-carboxy-5-methylhexyl)-phenyl]-2,2-dimethylhexanoic acid Coenzyme A ester], the IC50 in assay [4] is 1.63e-05 M and 1.33e-05 M and 1.25e-05 M. In addition, the “% Enzyme Activity (relative to DMSO controls), MAPKAPK2” value in assay [1] was 85.04% and 84.66%. In addition, the “% Enzyme Activity (relative to DMSO controls), RIPK4” value in assay [2] was 32.26% and 29.70%. For the same molecule, the “% Enzyme Activity (relative to DMSO controls), BMX/ETK” value in assay [3] was 49.55% and 47.76%.

Turning to `CC(C)(CCCCc1cccc(CCCCC(C)(C)C(=O)O)c1)C(=O)O` [Compound I-32, 6-[3-(5-carboxy-5-methylhexyl)-phenyl]-2,2-dimethylhexanoic acid], the IC50 in assay [4] was 0.000284 M and 0.000272 M and 0.00022 M. The figures for the remaining activity at 10 µM in assay [1], in assay [2] and in assay [3] were 91.7%, 43% and 53.7%, respectively.

The values above are taken from patent publication US11730712B2, “Functionalized long-chain hydrocarbon mono- and di-carboxylic acids and derivatives thereof, and their use for the prevention or treatment of disease” (ESPERVITA THERAPEUTICS, INC., priority 2021, dated 2023).
